Measurements taken from PubChem BioAssay AID179 (DTP/NCI, 2004).
Several values for one entry are separate records, joined by “and”; a condition that tells them apart may be missing. Identical values can stand only once. Activity calls are given as the source filed them.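 The calls were made as follows: active = compounds giving half or more protection of infected cells from virus-caused growth loss, again on retest; inactive = the rest.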 Where a SMILES comes first, the peptide text is derived from it. The star is where a group is joined. ONp = O=[N+]([O-])c1ccc(O*)cc1; Cbz = O=C(OCc1ccccc1)*; OBn = c1ccc(CO*)cc1

Test system: CEM cells HIV-1 protection, formazan growth assay
Test: NCI AIDS Antiviral Assay
Settings: for IC50: measured here: growth of uninfected CEM cells
Summary of the method: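 Human CEM cells, uninfected and HIV-1-infected, exposed to five drug concentrations; growth measured by soluble formazan assay and scored as percent protection from infection, with protecting compounds retested.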

Row | Structure (SMILES) | EC50 | IC50 | outcome
1 | OCC1OC(c2ccccc2)CC1O (centres undefined) | > 200 µM | > 200 µM | 
2 | COc1cc(C)c(O)c(C/C=C(\C)CC2=C[C@@]3(C)CCC[C@@]3(C)[C@]3(C=CC(C)(C)O3)O2)c1 | > 40.7 µM | 11 µM | 
3 | CCOC(=O)C1=NN(c2ccccc2)C(=O)/C1=C\N1C(=S)NC(=O)/C1=C\c1cccc([N+](=O)[O-])c1 | > 200 µM | 89.1 µM | 
4 | Cc1cc(=O)n2c3c(c4c(cc13)c(CO)cc(=O)n4C)OC2 |  |  | inactive
5 | O=C(NCCNCCNC(=O)C(F)(F)F)C(F)(F)F | > 200 µM | > 200 µM | 
6 | CC(C)(C)[Si](C)(C)OC1C(=O)C(CO)OC1n1ccc(=O)[nH]c1=O (centres undefined) | > 200 µM | > 200 µM | 
7 | N#CCCN(c1ccc(-c2nnc(NC(=O)CNNC(=O)CC(=O)Nc3ccccc3)s2)cc1)S(=O)(=O)c1ccccc1 | > 41.7 µM | > 41.7 µM | 
8 | CN(C)CC(=O)N1CCc2c([nH]c3ccccc23)C1c1cccnc1 (centres undefined) | > 107 µM | > 107 µM | 
9 | O=C(NO)c1ccc([N+](=O)[O-])cc1 | > 200 µM | 29.5 µM | 
10 | C/C(O)=C(\C=NC(=S)c1ccncc1)C(=O)Nc1ccccc1C | > 200 µM | > 200 µM | 
11 | Nc1ccccc1SC(/C=C/NNC1=NC(c2ccccc2)C(c2ccccc2)=NN1)c1ccccc1 (centres undefined) | > 100 µM | 4.27 µM | 
12 | CC(=O)Nc1cc2c(cc1[N+](=O)[O-])-c1cc([N+](=O)[O-])c(NC(C)=O)cc1C2=O | > 200 µM | 25.7 µM | 
13 | COC(NC(=O)Nc1ccc(C)cc1)(C(F)(F)F)C(F)(F)F | > 200 µM | 27.5 µM | 
14 | CO/C(=N\N=C\c1cc(OC)ccc1OC)c1ccncc1 | > 24 µM | > 24 µM | 
15 | O=c1ccn2n1Cc1ccccc1C2 | > 200 µM | > 200 µM | 
16 | COc1ccc(/C=C/C(=O)c2c(OC)cc(OC)c(OC)c2O)cc1 |  |  | inactive
17 | Nc1nc(=S)c2[nH]cnc2[nH]1 | > 60.3 µM | 0.955 µM | 
18 | CN(N=O)C(=O)NC(C=O)C(O)C(O)C(O)CO (centres undefined) | > 200 µM | > 200 µM | 
19 | COC1=CC(=O)c2cc(C)cc(-c3cc4ccc(=O)oc4cc3OC)c2C1=O |  |  | inactive
20 | CCN1CC2(COC)C(O)CC(OC)C34C5CC6(O)C(O)C5C(O)(C(O)C6OC)C(C(OC)C23)C14 (centres undefined) | > 200 µM | > 200 µM | 
21 | O=C1Nc2ccc([N+](=O)[O-])c3c([N+](=O)[O-])ccc1c23 | > 200 µM | 1.02 µM | 
22 | COc1ccc(C2C(N)=NCC2c2ccccn2)cc1 (centres undefined) |  |  | inactive

Row | Structure (SMILES) | EC50 | IC50 | outcome
23 | COC(=O)C1=COC(C)C2C[n+]3ccc4c([nH]c5ccccc54)c3CC12 (centres undefined) | > 200 µM | > 200 µM | 
24 | COC(=O)C(Cc1ccccc1)N=Cc1c(O)c(O)c(C(C)C)c2cc(C)c(-c3c(C)cc4c(C(C)C)c(O)c(O)c(C=NC(Cc5ccccc5)C(=O)OC)c4c3O)c(O)c12 (centres undefined) | > 11.7 µM | > 11.7 µM | 
25 | COc1ccc(C2CC(=O)c3c(O)cc(OC4OC(COC5OC(C)C(O)C(O)C5O)C(O)C(O)C4O)cc3O2)cc1O (centres undefined) | 138 µM | 191 µM | 
26 | OC12c3ccccc3C1(N1CCOCC1)CCCCC21OCCCO1 (centres undefined) | 170 µM | 295 µM | 
27 | OCC1OC2OC3C(CO)OC(OC4C(CO)OC(OC5C(CO)OC(OC6C(CO)OC(OC7C(CO)OC(OC1C(O)C2O)C(O)C7O)C(O)C6O)C(O)C5O)C(O)C4O)C(O)C3O (centres undefined) (tested in a mixture with another compound) | > 200 µM | > 200 µM | 
28 | O=C1C(=O)c2ccccc2C(O)=C1CCCc1ccc(Oc2ccccc2)cc1 |  |  | inactive
29 | CCOC(=O)/C(=C\c1ccc(OC)cc1)[Se]c1ccccc1 | > 20 µM | > 20 µM | 
30 | Nc1nc2c(ncn2C2COC(CO)O2)c(=O)[nH]1 (centres undefined) | 30.2 µM | > 200 µM | 
31 | CCCCCCOc1ccc(C(=O)NO)cc1 | > 200 µM | 13.2 µM | 
32 | CCCCCCCCOP(=O)(/C=C/c1ccccc1)OCCCCCCCC | > 6.61 µM | > 6.61 µM | 
33 | C=C(Br)CN(C#N)CC(=C)Br | > 200 µM | > 200 µM | 
34 | Cc1ccc(S(=O)OC2c3ccccc3Cc3ccccc32)cc1 (centres undefined) |  |  | inactive
35 | O=C1CSC(=Nc2ccccc2)N1c1ncccn1 | > 47.9 µM | > 47.9 µM | 
36 | CCN(C(=S)N[C@@H](Cc1ccccc1)C(=O)N[C@@H](CC(C)C)C(=O)OC)c1ccccc1 | > 200 µM | 25.7 µM | 
37 | COc1cc2c(c(C3(O)C(=O)N(C)c4ccccc43)c1OC)OCO2 (centres undefined) | > 200 µM | > 200 µM | 
38 | C/C(=N\NC(=S)N1CCN(c2ccccn2)CC1)c1cccc2cccnc12 | > 45.7 µM | 0.0417 µM | 
39 | Cc1cccc(-c2nc3ccc([N+](=O)[O-])cc3c(=O)o2)c1 | > 200 µM | 30.9 µM | 
40 | CN(C)CCC(O)(Cc1ccccc1)c1ccco1 (centres undefined) | > 200 µM | 34.7 µM | 
41 | COc1cc(C)c(O)c(C[P+](c2ccccc2)(c2ccccc2)c2ccccc2)c1 | > 200 µM | 11.7 µM | 
42 | Cc1cc(Br)cc(C)c1NC(=O)C(=O)C1C(=O)C(CC2C(=O)c3ccccc3C2=O)C(=O)CC1(C)C (centres undefined) | > 18.2 µM | > 18.2 µM | 
43 | Nc1ncnc2c1ncn2C1C(O)C(CO)C1CO (centres undefined) | > 186 µM | > 186 µM | 
44 | O=C1/C(=C/c2ccc(Cl)c(Cl)c2)CNC/C1=C\c1ccc(Cl)c(Cl)c1 | > 16.2 µM | 8.71 µM | 

Row | Structure (SMILES) | EC50 | IC50 | outcome
45 | O=C1OC2C3Cc4ccccc4N2C1C3 (centres undefined) | > 646 µM | 363 µM | 
46 | O=C1C/C(=C\c2ccccc2)C(=O)c2ccccc2N1 | > 200 µM | 12.6 µM | 
47 | O=c1oc2c/c(=C\c3ccccn3)c(=O)c3cccc1c3-2 | > 200 µM | 3.72 µM | 
48 | CCOC(=O)n1c(=O)nc2c3c(ncn21)Oc1c(c(-c2ccccc2)nn1-c1ccccc1)C3c1ccc(Cl)cc1 (centres undefined) | > 200 µM | 2.29 µM | 
49 | CCOC(=O)C1C(=O)C(=O)N2CCc3c([nH]c4ccccc34)C12 (centres undefined) | > 263 µM | 166 µM | 
50 | O=[N+]([O-])c1cc(S(=O)(=O)c2ccc(Cl)c([N+](=O)[O-])c2)ccc1Cl | > 200 µM | 2.34 µM | 
51 | CN(C)CCSC1=Nc2ccc(Cl)cc2C(c2ccccc2Cl)=NC1 | > 200 µM | 12.3 µM and 47.9 µM | 
52 | O=C(/C=C/c1ccc(O)c(O)c1)OCCc1ccc2ccccc2c1 | > 200 µM | 4.68 µM | 
53 | Clc1ccc(C2=NOC(C3CCCCC3)C2)cc1 (centres undefined) | > 38 µM | > 38 µM | 
54 | CC(=O)O/C(=C(/C#N)C(=O)O)C1C(C(=O)O)C(c2ccccc2[N+](=O)[O-])C=C(c2ccco2)N1c1ccncc1 (centres undefined) | > 20 µM | 2.4 µM | 
55 | CCOC(=O)c1nnc2sc(-c3ccccc3)nn12 | 58.9 µM | 191 µM | 
56 | O=CNNC(=O)Nc1ccc(Cl)cc1 | > 200 µM | > 200 µM | 
57 | Clc1ccc(C[P+](c2ccccc2)(c2ccccc2)c2ccccc2)cc1Cl | > 200 µM | 3.02 µM | 
58 | CN(N=O)C(=O)ON1C(=O)CCC1=O | > 1230 µM | 107 µM | 
59 | CCNC1C2(CCCCC2)NC(=O)C12CCCCC2 (centres undefined) |  |  | inactive
60 | O=C(CNC(=O)C(CCC(=O)OCc1ccccc1)NC(=O)OCc1ccccc1)NCC(=O)NC(CO)C(=O)NCC(=O)Oc1ccc([N+](=O)[O-])cc1 (centres undefined) (Cbz-E(OBn)GGSG-ONp; configuration not given here) | > 91.2 µM | > 91.2 µM | 
61 | O=c1[nH]c2c(cnn2-c2ccccc2)c(=O)n1OS(=O)(=O)c1ccccc1 | > 200 µM | > 200 µM | 
62 | CC(=S)N/C=C(\C#N)c1nc2ccccc2s1 | > 200 µM | 107 µM | 
63 | CSC1=C(C(=O)Nc2ccccc2)C(N)=NC1=O | > 200 µM | 141 µM | 
64 | CC(C)CCCC(C)[C@H]1CCC2[C@@H]3CCC4Nc5nocc5C[C@]4(C)C3CC[C@@]21C (some centres undefined) |  |  | inactive
65 | CN1C2CC(C#N)C1C=CC2=O (centres undefined) | > 200 µM | 32.4 µM and 107 µM | 
66 | O=S1(=O)NNC(=NCc2ccc(Cl)cc2)c2ccccc21 |  |  | inactive

Row | Structure (SMILES) | EC50 | IC50 | outcome
67 | c1ccc2c(c1)c1c(n2CCOCCN2CCOCC2)CCCC1 | > 200 µM | 112 µM | 
68 | CC1=NN(C(=O)c2ccc(O)cc2)C(=O)C1N=Nc1ccccc1C(=O)O (centres undefined) |  |  | inactive
69 | O=C(CN1CCOCC1)Nc1ccc2c(c1)C1Oc3ccccc3CC1CO2 (centres undefined) |  |  | inactive
70 | COc1cccc(/C=C2\CCCc3ccccc3C2=O)c1 | > 200 µM | 26.3 µM | 
71 | CC(C)(C)c1ccc(O)c(Cc2cc(C(C)(C)C)cc(Cc3cc(C(C)(C)C)ccc3O)c2O)c1 | > 39.8 µM | 12.9 µM | 
72 | O=C(Nc1ccccc1)OCCN=C1c2ccccc2C(Br)C(Br)c2ccccc21 (centres undefined) | > 200 µM | 0.794 µM | 
73 | CN1CCN(Cc2nc3cccc4c3c([n+]2[O-])-c2ccccc2-4)CC1 |  |  | inactive
74 | COc1cc2ccc1OCc1cccc(n1)COc1ccc(cc1OC)C=Nc1ccc(cc1)N=C2 | > 200 µM | > 200 µM | 
75 | COC(=O)CCC(C)C1CCC2[C@@H]3CC[C@@H]4CC(CSC(C)=O)CC[C@]4(C)C3CC[C@]12C (some centres undefined) | > 29.5 µM | > 29.5 µM | 
76 | CN1C(=O)CC2(C)C1=CCc1scnc12 (centres undefined) | > 200 µM | > 200 µM | 
77 | CC=CCOc1cc(NC(=S)OC(C)C)ccc1Cl (mixture of isomers) | 0.126 µM | 24 µM | 
78 | COC1OC(COC(=O)NCCCCC(=O)C(F)(F)C(F)(F)C(F)(F)C(F)(F)C(F)(F)C(F)(F)C(F)(F)F)C(O)C(O)C1O (centres undefined) | > 200 µM | 2.95 µM and 6.03 µM | 
79 | O=C(O)c1ccccc1SSc1ccccc1C(=O)O | 112 µM and > 589 µM and > 200 µM | 589 µM and > 589 µM and > 200 µM | 
80 | CCOP(=O)(Nc1cccc(Cl)c1)OCC | > 955 µM |  | 
81 | CCCCCCCCCCC(c1cc(Cl)c(OC)c(C(=O)OC)c1)c1cc(Cl)c(OC)c(C(=O)OC)c1 | > 38.9 µM | > 38.9 µM | 
82 | COC(=O)[C@@H]1C[C@@]23CCCN4CC[C@@]5(c6cccc(OC)c6N(C=O)[C@]15CC2)[C@@H]43 | > 66.1 µM | > 66.1 µM | 
83 | CC1(Br)CN(C(=S)Nc2ccccc2)C1=O (centres undefined) | > 200 µM | 97.7 µM | 
84 | COC(=O)C(CCC#N)(CCC#N)C(=O)OC | > 21.9 µM | > 21.9 µM | 
85 | O=C1c2ccccc2-c2cc(S)c([N+](=O)[O-])cc21 | > 200 µM | 145 µM | 
86 | CCOc1ccc(/C=N\N2C(=O)c3ccccc3C2=O)cc1 | > 123 µM | > 123 µM | 
